Measurements as given in the OligoGym collection.
Bases are written 5' to 3'; sugars and linkages follow in the same order, as letters with counts (s phosphorothioate, o phosphodiester; PS: all linkages phosphorothioate). The collection does not say whether C is 5-methylated. l = locked nucleic acid (LNA); d = 2'-deoxy (DNA)

molecular target: Tau; assay: rat primary cortical neurons, FLIPR, 25 uM ASO

Point of comparison: “CTTTCTACTCAATTCCAG (sugars l3 d12 l3, PS)”, calcium oscillation score 45.5 % of control. Against it:
- CTTCCATCACTTCGAACTCC (sugars l3 d14 l3, PS) — lower, 27.1 % of control
- CTTCTAATTTAGTCACC (sugars l3 d10 l4, PS) — higher, 54.6 % of control
- CTTCTAGTTATACAGTTGGC (sugars l3 d14 l3, PS) — lower, 40.5 % of control
- CTTCTATTACTTGCAAT (sugars l4 d9 l4, PS) — higher, 69 % of control
- CTTCTCAGCCACTGTT (sugars l3 d10 l3, PS) — higher, 67.9 % of control
- CTTCTCCAGTATTTCTTC (sugars l2 d13 l3, PS) — higher, 69.4 % of control
- CTTCTGTCACTTATTTA (sugars l4 d9 l4, PS) — higher, 46.9 % of control
- CTTGAAGTCAAGCTTCTCAG (sugars l3 d14 l3, PS) — lower, 33.2 % of control
- CTTGGCTTTGGCGTT (sugars l3 d9 l3, PS) — higher, 82.4 % of control
- CTTGGCTTTGGCGTTC (sugars l3 d10 l3, PS) — lower, 2.61 % of control
- CTTGGCTTTTTTGTCATCGC (sugars l3 d14 l3, PS) — lower, 23.3 % of control
- CTTGGGTGGAGTACGG (sugars l3 d10 l3, PS) — lower, 0 % of control
- CTTGGGTGGAGTACGGACCA (sugars l3 d14 l3, PS) — lower, 0 % of control
- CTTGTGATGCAGGA (sugars l3 d8 l3, PS) — higher, 70.5 % of control
- CTTGTGATGCAGGAG (sugars l3 d9 l3, PS) — higher, 87.8 % of control
- CTTTAATTTAATCACTC (sugars l4 d9 l4, PS) — lower, 17.3 % of control
- CTTTAATTTAATCACTCA (sugars l4 d10 l4, PS) — higher, 76.6 % of control
- CTTTACCCATCTTAATTC (sugars l4 d11 l3, PS) — higher, 86.1 % of control
- CTTTACCCATCTTAATTCAT (sugars l3 d15 l2, PS) — higher, 82.1 % of control
- CTTTATTCCCTTAACAATAT (sugars l3 d14 l3, PS) — higher, 74.6 % of control
- CTTTATTTCCAAATTCAC (sugars l3 d11 l1 d1 l2, PS) — higher, 132 % of control
- CTTTATTTCCAAATTCAC (sugars l3 d11 l4, PS) — higher, 112 % of control
- CTTTATTTCCAAATTCAC (sugars l4 d10 l1 d1 l2, PS) — lower, 5.59 % of control
- CTTTATTTCCAAATTCAC (sugars l4 d10 l4, PS) — higher, 110 % of control
- CTTTATTTCCAAATTCAC (sugars l5 d9 l1 d1 l2, PS) — higher, 119 % of control
- CTTTATTTCCAAATTCAC (sugars l5 d9 l4, PS) — higher, 104 % of control
- CTTTATTTCCAAATTCAC (sugars lldlddddddddddldll, PS) — higher, 136 % of control
- CTTTATTTCCAAATTCACT (sugars l3 d11 l1 d1 l3, PS) — higher, 116 % of control
- CTTTATTTCCAAATTCACT (sugars l3 d11 l1 d2 l2, PS) — higher, 140 % of control
- CTTTATTTCCAAATTCACT (sugars l3 d11 l2 d1 l2, PS) — higher, 116 % of control
- CTTTATTTCCAAATTCACT (sugars l3 d11 l5, PS) — higher, 121 % of control
- CTTTATTTCCAAATTCACT (sugars l4 d10 l1 d1 l3, PS) — higher, 106 % of control
- CTTTATTTCCAAATTCACT (sugars l4 d10 l1 d2 l2, PS) — higher, 125 % of control
- CTTTATTTCCAAATTCACT (sugars l4 d10 l2 d1 l2, PS) — higher, 93.2 % of control
- CTTTATTTCCAAATTCACT (sugars l4 d10 l5, PS) — higher, 108 % of control
- CTTTATTTCCAAATTCACT (sugars l5 d9 l1 d1 l3, PS) — higher, 110 % of control
- CTTTATTTCCAAATTCACT (sugars l5 d9 l1 d2 l2, PS) — higher, 104 % of control
- CTTTATTTCCAAATTCACT (sugars l5 d9 l2 d1 l2, PS) — higher, 108 % of control
- CTTTATTTCCAAATTCACT (sugars l5 d9 l5, PS) — higher, 127 % of control
- CTTTATTTCCAAATTCACTT (sugars l1 d17 l2, PS) — higher, 179 % of control
- CTTTATTTCCAAATTCACTT (sugars l2 d1 l1 d12 l4, PS) — lower, 44.7 % of control
- CTTTATTTCCAAATTCACTT (sugars l2 d1 l1 d13 l3, PS) — higher, 132 % of control
- CTTTATTTCCAAATTCACTT (sugars l2 d1 l2 d11 l4, PS) — lower, 0 % of control
- CTTTATTTCCAAATTCACTT (sugars l2 d1 l2 d12 l3, PS) — higher, 112 % of control
- CTTTATTTCCAAATTCACTT (sugars l2 d2 l1 d11 l4, PS) — higher, 74.5 % of control
- CTTTATTTCCAAATTCACTT (sugars l2 d2 l1 d12 l3, PS) — higher, 108 % of control
- CTTTATTTCCAAATTCACTT (sugars l2 d16 l2, PS) — higher, 195 % of control
- CTTTATTTCCAAATTCACTT (sugars l3 d1 l1 d11 l4, PS) — higher, 129 % of control
- CTTTATTTCCAAATTCACTT (sugars l3 d1 l1 d12 l3, PS) — lower, 29.8 % of control
- CTTTATTTCCAAATTCACTT (sugars l3 d11 l1 d2 l3, PS) — higher, 112 % of control
- CTTTATTTCCAAATTCACTT (sugars l3 d14 l3, PS) — higher, ≥ 200 % of control
- CTTTATTTCCAAATTCACTT (sugars l4 d11 l5, PS) — higher, 136 % of control
- CTTTATTTCCAAATTCACTT (sugars l4 d12 l4, PS) — lower, 0 % of control
- CTTTATTTCCAAATTCACTT (sugars l4 d13 l3, PS) — higher, 121 % of control
- CTTTATTTCCAAATTCACTT (sugars l5 d10 l5, PS) — higher, ≥ 200 % of control
- CTTTATTTCCAAATTCACTT (sugars l5 d11 l4, PS) — higher, 143 % of control
- CTTTATTTCCAAATTCACTT (sugars ldlllddddddddddlldll, PS) — higher, 134 % of control
- CTTTATTTCCAAATTCACTT (sugars lldllddddddddddlldll, PS) — higher, 117 % of control
- CTTTCATCTACTTTTCAG (sugars l3 d12 l3, PS) — higher, 70.8 % of control
- CTTTCCTAATTCCCAAATTC (sugars l3 d15 l2, PS) — higher, 60.9 % of control
- CTTTGAACACCCCATCTA (sugars l2 d14 l2, PS) — higher, 45.6 % of control
- CTTTGAGTTGAGGGAC (sugars l3 d10 l3, PS) — lower, 29.1 % of control
- CTTTGCTTTTACTGACCATG (sugars l3 d14 l3, PS) — lower, 0 % of control
- CTTTGGCGTTCTCGCG (sugars l3 d10 l3, PS) — higher, 93.5 % of control
- CTTTGTAATTCCTTCTCT (sugars l2 d13 l3, PS) — higher, 63.3 % of control
- CTTTTAATTAAATTTCTCCC (sugars l2 d15 l3, PS) — higher, 87.6 % of control
- CTTTTCCCAATTATTAAC (sugars l4 d10 l4, PS) — higher, 60.1 % of control
- CTTTTCCCAATTATTAACC (sugars l3 d14 l2, PS) — higher, 54.5 % of control
- CTTTTCTACTCTACTCTCAA (sugars l4 d14 l2, PS) — higher, 67.6 % of control
- CTTTTCTCAATGTAACC (sugars l4 d10 l3, PS) — higher, 65.9 % of control
- CTTTTCTTAAAGTTCAC (sugars l4 d9 l4, PS) — higher, 82.2 % of control
- CTTTTGAACCCATTCCA (sugars l3 d12 l2, PS) — higher, 82.2 % of control
- CTTTTGAACCCATTCCAC (sugars l3 d13 l2, PS) — higher, 110 % of control
- CTTTTTCCATCTTACTAATA (sugars l3 d14 l3, PS) — higher, 46.5 % of control
- CTTTTTCTTGTTCTAAC (sugars l2 d11 l4, PS) — higher, 57.9 % of control
- CTTTTTCTTGTTCTAACC (sugars l3 d11 l4, PS) — higher, 62.3 % of control
- CTTTTTTTTTCCACACTCTC (sugars l2 d14 l4, PS) — higher, 49 % of control
- GAAAACCATCAACCAC (sugars l4 d8 l4, PS) — lower, 44.3 % of control
- GAAAGAGGGCAGCAGG (sugars l3 d10 l3, PS) — lower, 0 % of control
- GAAAGATGAAATTTGCTCTT (sugars l3 d14 l3, PS) — higher, 100 % of control
- GAAATCCCTCTACTCC (sugars l2 d11 l3, PS) — higher, 70.7 % of control
- GAAATCCCTCTACTCCA (sugars l3 d12 l2, PS) — higher, 73.7 % of control
- GAACAGGAGAGCCATTTCCC (sugars l3 d14 l3, PS) — lower, 7.14 % of control
- GAACTATTGATAAA (sugars l3 d8 l3, PS) — higher, 85.7 % of control
- GAACTGCGAGGAGCAG (sugars l3 d10 l3, PS) — higher, 85.2 % of control
- GAACTGGTTAGCCCTA (sugars l3 d10 l3, PS) — higher, 79.9 % of control
- GAACTTCTAGTTATACAGTT (sugars l3 d14 l3, PS) — lower, 26.2 % of control
- GAAGGTCAGCTTGTGG (sugars l3 d10 l3, PS) — lower, 11.4 % of control
- GAAGGTGGCTCTGGGC (sugars l3 d10 l3, PS) — lower, 0 % of control
- GAAGTCCCGAGCCAAAGCCG (sugars l3 d14 l3, PS) — lower, 5.18 % of control
- GAATAACATTAACCCT (sugars l4 d8 l4, PS) — higher, 74.5 % of control
- GAATATTACACCATCC (sugars l4 d8 l4, PS) — higher, 97 % of control
- GACACCTCGTCAGCTAGCGT (sugars l3 d14 l3, PS) — lower, 11.7 % of control
- GACCCTTTTTCTTAAC (sugars l4 d10 l2, PS) — higher, 59.1 % of control
- GACGTGGGTGATATTGTCCA (sugars l3 d14 l3, PS) — lower, 0 % of control
- GACGTTGCTAAGATCC (sugars l3 d10 l3, PS) — lower, 22.6 % of control
- GACTGCTCAGCTAAGACCCT (sugars l3 d14 l3, PS) — lower, 31.2 % of control
- GACTTGGGTGGAGTAC (sugars l3 d10 l3, PS) — lower, 0 % of control
- GACTTGGGTGGAGTACGGAC (sugars l3 d14 l3, PS) — lower, 0 % of control
- GACTTGTACACGAT (sugars l3 d8 l3, PS) — higher, 112 % of control
- GACTTGTACACGATCTCCGC (sugars l3 d14 l3, PS) — higher, 66.8 % of control
- GAGAACTGGTTAGCCC (sugars l3 d10 l3, PS) — lower, 2.3 % of control
- GAGACCACATTATCATCCAT (sugars l3 d14 l3, PS) — higher, 52.4 % of control
- GAGAGACCACATTATCATCC (sugars l3 d14 l3, PS) — higher, 96.7 % of control
- GAGCACTAACTCTAAGTAGA (sugars l3 d14 l3, PS) — lower, 23.8 % of control
